Like-named read-outs stand apart in the source and are kept apart here. Where a SMILES comes first, the peptide text is derived from it. Where no end group is shown, it is not given here.
Tests used:
[1] = molecular target: T1, Shaker-IR K+ channel (Drosophila melanogaster, UniProt P08510, DEL6-46); experiment: Two-electrode voltage clamp on Shaker-IR K+ channel expressed in Xenopus oocytes; type: biochemical; settings: for IC50: TEVC in Xenopus laevis oocytes, ND96 pH 7.4, 18–22 °C, n ≥ 3 per concentration, read-out: IC50, inhibition of Shaker-IR K+ channel
T1 construct: expressed in transfected cells; host or cells: Xenopus laevis oocytes injected with in-vitro-transcribed cRNA
T1 sequence (P08510 with tags, fused parts or gaps DEL6-46): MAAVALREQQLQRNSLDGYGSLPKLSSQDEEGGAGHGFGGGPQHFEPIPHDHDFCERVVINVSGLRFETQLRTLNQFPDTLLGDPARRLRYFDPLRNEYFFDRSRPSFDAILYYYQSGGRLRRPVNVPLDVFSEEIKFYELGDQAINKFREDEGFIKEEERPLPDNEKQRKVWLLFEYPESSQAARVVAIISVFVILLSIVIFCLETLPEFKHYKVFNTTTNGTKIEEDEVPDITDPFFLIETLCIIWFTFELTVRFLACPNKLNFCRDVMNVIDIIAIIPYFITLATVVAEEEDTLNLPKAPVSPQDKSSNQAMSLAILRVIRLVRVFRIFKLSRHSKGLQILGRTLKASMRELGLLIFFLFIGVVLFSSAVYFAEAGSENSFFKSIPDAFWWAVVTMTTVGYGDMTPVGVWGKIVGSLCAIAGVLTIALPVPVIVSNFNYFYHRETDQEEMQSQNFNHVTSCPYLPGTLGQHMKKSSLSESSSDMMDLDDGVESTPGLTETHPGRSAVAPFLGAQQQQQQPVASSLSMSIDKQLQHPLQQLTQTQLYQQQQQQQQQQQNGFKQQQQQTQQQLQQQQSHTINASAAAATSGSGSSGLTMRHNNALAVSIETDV
Protocol: Electrophysiological experiments were carried out in Xenopus laevis oocytes. Linearized plasmids encoding Shaker-IR, hKv1.1, and hKv1.2 channels were transcribed using the T7 mMESSAGE mMACHINE transcription kit (Ambion, Austin, TX, USA). Mature female animals were purchased from Nasco (Fort Atkinson, WI, USA) and were housed in the Aquatic Facility (KU Leuven) in compliance with the regulations of the European Union (EU) concerning the welfare of laboratory animals as declared in Directive 2010/63/EU. The use of X. laevis oocytes was approved by the Animal Ethics Committee of the KU Leuven with license number P186/2019. Stage V–VI oocytes were collected from anesthetized female X. laevis frogs as previously described, with the frogs anesthetized by placement in 0.1% tricaine solution (amino benzoic acid ethyl ester; Merck, Rahway, NJ, USA). Oocyte microinjection was performed using a microinjector (World Precision Instruments, Sarasota, FL, USA), with a programmed cRNA injection volume of 4–10 nL, depending on the channel subtype. The oocytes were incubated in an MBS solution (88 mM NaCl, 1 mM KCl, 2.5 mM NaHCO3, 1 mM MgSO4, and 5 mM HEPES, pH 7.8) supplemented with 50 mg/L gentamicin sulfate and 90 mg/L theophylline. Electrophysiological measurements were performed at room temperature (18–22 °C) using the two-electrode voltage clamp (TEVC) technique. Data were obtained using a GeneClamp 500 amplifier (Axon Instruments, Burlingame, CA, USA), and Clampex9 software (Axon Instruments, Union City, CA, USA) was used for data acquisition and storage. Glass micropipettes were produced using glass capillaries (borosilicate WPI 1B120-6) and drawn in a WPI (World Precision Instruments, Sarasota, FL, USA) manual stretcher. The bath and perfusion solutions were ND96 (96 mM NaCl, 2 mM KCl, 1.8 mM CaCl2, 2 mM MgCl2, and 5 mM HEPES, pH 7.4). Whole-cell currents of oocytes were recorded 1 to 3 days after injection. Current and voltage electrodes were filled with 3 M KCl, and their resistance was adjusted from 0.5 to 1.5 MΩ. […]

[2] = test system: mice (male Slc:ICR strain); experiment: Mammalian toxicity, intracerebroventricular injection into mice; type: in vivo, mouse; settings: injection dose 50 nmol/kg, in PBS, male Slc:ICR mice 20 g, three animals, monitored for up to 24 h
Protocol: (§1) The insecticidal activity was evaluated as previously described. In this study, we used crickets (Acheta domesticus, 45–55 mg), houseflies (Musca domestica, 13–17 mg), silkworms (Bombyx mori, 225–275 mg), and cockroaches (Periplaneta americana, 75–225 mg). Each peptide in distilled water was injected into the abdominal region of insects. As a negative control, distilled water was used. Ten insects were used for each dose, except for doses of 3.1 and 6.3 nmol in LaIT6(R24A), for which 15 and 20 insects were used, respectively. The number of dead insects was counted 48 h after injection (24 h after injection in the case of houseflies). […] Toxicity to mammals was evaluated as previously described. The sample solution in a PBS buffer was injected intracerebroventricularly into mice (male Slc:ICR strain, 20 g) after anesthetizing with isoflurane. As a negative control, PBS buffer was used. Three animals were used for each measurement, and toxic symptoms were monitored for up to 24 h. The experimental protocol was approved by the Ethical Committee for the Welfare of Animals at Kyoto University.

[3] = test system: crickets (Acheta domesticus); experiment: Insecticidal activity against crickets (injection, LD50); type: in vivo; settings: injection into abdominal region in distilled water; Acheta domesticus 45–55 mg; ten insects per dose; dead insects counted 48 h after injection; brackets = 95% confidence interval
Protocol: as §1

CC[C@H](C)[C@@H]1NC(=O)[C@@H]2CSSC[C@H](NC(=O)[C@@H]3CCCN3C(=O)[C@@H](NC(=O)[C@H](CC(N)=O)NC(=O)[C@@H]3CCCN3C(=O)[C@@H]3CCCN3C(=O)[C@@H](NC(=O)[C@@H](N)CO)C(C)C)[C@@H](C)CC)C(=O)N[C@@H](CCC(N)=O)C(=O)N[C@@H](C(C)C)C(=O)N[C@@H]([C@@H](C)O)C(=O)N[C@@H](CC(N)=O)C(=O)N[C@@H](CCC(N)=O)C(=O)N[C@H]3CSSC[C@H](NC(=O)[C@H](CCCNC(=N)N)NC(=O)CNC(=O)[C@H](CC(N)=O)NC1=O)C(=O)N[C@@H](CCCCN)C(=O)N[C@H](C(=O)N[C@@H](Cc1ccc(O)cc1)C(N)=O)CSSC[C@H](NC(=O)[C@@H]1CCCN1C(=O)[C@H](CCCCN)NC(=O)[C@@H]1CCCN1C3=O)C(=O)N[C@@H](CCCNC(=N)N)C(=O)N[C@@H](CCC(=O)O)C(=O)N[C@@H](C)C(=O)N[C@@H]([C@@H](C)O)C(=O)NCC(=O)N[C@@H](CCCNC(=N)N)C(=O)N1CCC[C@H]1C(=O)N[C@@H](CC(N)=O)C(=O)N[C@@H](CO)C(=O)N[C@@H](C)C(=O)N2 [LaIT6(K28A)] (HELM PEPTIDE1{S.V.P.P.N.I.P.C.Q.V.T.N.Q.C.P.K.P.C.R.E.A.T.G.R.P.N.S.A.C.I.N.G.R.C.K.C.Y.[am]}$PEPTIDE1,PEPTIDE1,8:R3-29:R3|PEPTIDE1,PEPTIDE1,14:R3-34:R3|PEPTIDE1,PEPTIDE1,18:R3-36:R3$$$V2.0)
IC50 ([1]; 95% CI 0.81–6.7 µM): 2300 nM | IC50 on Shaker-IR relative to wild-type LaIT6 (times higher) ([1]; ratio of IC50 LaIT6(K28A) to IC50 LaIT6): approximately 300 times

CC[C@H](C)[C@@H]1NC(=O)[C@@H]2CSSC[C@H](NC(=O)[C@@H]3CCCN3C(=O)[C@@H](NC(=O)[C@H](CC(N)=O)NC(=O)[C@@H]3CCCN3C(=O)[C@@H]3CCCN3C(=O)[C@@H](NC(=O)[C@@H](N)CO)C(C)C)[C@@H](C)CC)C(=O)N[C@@H](CCC(N)=O)C(=O)N[C@@H](C(C)C)C(=O)N[C@@H]([C@@H](C)O)C(=O)N[C@@H](CC(N)=O)C(=O)N[C@@H](CCC(N)=O)C(=O)N[C@H]3CSSC[C@H](NC(=O)[C@H](CCCNC(=N)N)NC(=O)CNC(=O)[C@H](CC(N)=O)NC1=O)C(=O)N[C@@H](CCCCN)C(=O)N[C@H](C(=O)N[C@@H](Cc1ccc(O)cc1)C(N)=O)CSSC[C@H](NC(=O)[C@@H]1CCCN1C(=O)[C@H](CCCCN)NC(=O)[C@@H]1CCCN1C3=O)C(=O)N[C@@H](CCCNC(=N)N)C(=O)N[C@@H](CCC(=O)O)C(=O)N[C@@H](C)C(=O)N[C@@H]([C@@H](C)O)C(=O)NCC(=O)N[C@@H](CCCNC(=N)N)C(=O)N1CCC[C@H]1C(=O)N[C@@H](CC(N)=O)C(=O)N[C@@H](CO)C(=O)N[C@@H](CCCCN)C(=O)N2 [LaIT6] (HELM PEPTIDE1{S.V.P.P.N.I.P.C.Q.V.T.N.Q.C.P.K.P.C.R.E.A.T.G.R.P.N.S.K.C.I.N.G.R.C.K.C.Y.[am]}$PEPTIDE1,PEPTIDE1,8:R3-29:R3|PEPTIDE1,PEPTIDE1,14:R3-34:R3|PEPTIDE1,PEPTIDE1,18:R3-36:R3$$$V2.0)
Mammalian toxicity (toxic symptoms) in mice [2]: did not observe any toxic symptoms | IC50 ([1]; 95% CI 4.8–14 nM): 8.2 nM

SVPPNIPCQVTNQCPKPCREATGRPNSKCINGRCKCY-OH (disulfide (positions not given here)) [LaIT6(COOH), LaIT6 analog, C-terminal amide group converted to a carboxyl group]
LD50, insecticidal activity against crickets [3]: 19 (14–25) nmol/g

Reference: article PMC12542817, “LaIT6: A Novel Insect-Selective K^+-Channel Toxin from Liocheles australasiae Scorpion Venom” (Molecules, 2025)
